Reference: PubChem BioAssay (NCI)
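Interpolation was linear, between the two tested concentrations surrounding the appropriate level; five concentrations were tested over 48 hours in 96-well plates. GI50 is the concentration that inhibits growth by half. At the TGI there is no net growth.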

Tests used:
Test in all cases: inhibition of tumour cell growth, NCI panel, 48 h
COLO 205 colon = test system: COLO 205 colon
SF-268 CNS = test system: SF-268 CNS
HS 578T breast = test system: HS 578T breast
SF-539 CNS = test system: SF-539 CNS
A549 NSCLC = test system: A549 NSCLC
U251 CNS = test system: U251 CNS
UACC-257 melanoma = test system: UACC-257 melanoma
HT29 colon = test system: HT29 colon
SK-MEL-2 melanoma = test system: SK-MEL-2 melanoma
SN12C renal = test system: SN12C renal
MCF7 breast = test system: MCF7 breast
HCC-2998 colon = test system: HCC-2998 colon
OVCAR-5 ovarian = test system: OVCAR-5 ovarian
SK-OV-3 ovarian = test system: SK-OV-3 ovarian
SK-MEL-28 melanoma = test system: SK-MEL-28 melanoma
HL-60(TB) leukemia = test system: HL-60(TB) leukemia
OVCAR-8 ovarian = test system: OVCAR-8 ovarian
K-562 leukemia = test system: K-562 leukemia
NCI-H23 lung = test system: NCI-H23 lung
KM12 colon = test system: KM12 colon
BT-549 breast = test system: BT-549 breast
TK-10 renal = test system: TK-10 renal
SR leukemia = test system: SR leukemia
DU-145 prostate = test system: DU-145 prostate
SK-MEL-5 melanoma = test system: SK-MEL-5 melanoma
CAKI-1 renal = test system: CAKI-1 renal
UO-31 renal = test system: UO-31 renal
CCRF-CEM leukemia = test system: CCRF-CEM leukemia
SW-620 colon = test system: SW-620 colon
SNB-19 CNS = test system: SNB-19 CNS
A498 renal = test system: A498 renal
MALME-3M melanoma = test system: MALME-3M melanoma
HCT-15 colon = test system: HCT-15 colon
NCI-H226 lung = test system: NCI-H226 lung
MDA-MB-435 = test system: MDA-MB-435
LOX IMVI melanoma = test system: LOX IMVI melanoma
PC-3 prostate = test system: PC-3 prostate
IGROV1 ovarian = test system: IGROV1 ovarian
UACC-62 melanoma = test system: UACC-62 melanoma
NCI/ADR-RES ovarian = test system: NCI/ADR-RES ovarian
OVCAR-3 ovarian = test system: OVCAR-3 ovarian
786-0 renal = test system: 786-0 renal
MOLT-4 leukemia = test system: MOLT-4 leukemia
T-47D breast = test system: T-47D breast
EKVX NSCLC = test system: EKVX NSCLC
SNB-75 CNS = test system: SNB-75 CNS
ACHN renal = test system: ACHN renal
HOP-62 NSCLC = test system: HOP-62 NSCLC
NCI-H460 lung = test system: NCI-H460 lung
RXF 393 renal = test system: RXF 393 renal
MDA-MB-231 breast = test system: MDA-MB-231 breast
OVCAR-4 ovarian = test system: OVCAR-4 ovarian
HOP-92 NSCLC = test system: HOP-92 NSCLC
SF-295 CNS = test system: SF-295 CNS
HCT-116 colon = test system: HCT-116 colon
NCI-H522 lung = test system: NCI-H522 lung
M14 melanoma = test system: M14 melanoma
RPMI-8226 leukemia = test system: RPMI-8226 leukemia

Cc1ccc2sc3c(c2c1)OC(N)=C(C#N)C3c1cccc(F)c1 (stereo unspecified)
GI50 (COLO 205 colon): 276 nM
TGI (COLO 205 colon): 779 nM
GI50 (SF-268 CNS): 822 nM
TGI (SF-268 CNS): 24600 nM
GI50 (HS 578T breast): 194 nM
TGI (HS 578T breast): 8970 nM
GI50 (SF-539 CNS): 155 nM
TGI (SF-539 CNS): 547 nM
GI50 (A549 NSCLC): 217 nM
TGI (A549 NSCLC): 11600 nM
GI50 (U251 CNS): 151 nM
TGI (U251 CNS): 1950 nM
GI50 (UACC-257 melanoma): 162 nM
TGI (UACC-257 melanoma): 23300 nM
GI50 (HT29 colon): 250 nM
TGI (HT29 colon): 878 nM
GI50 (SK-MEL-2 melanoma): 308 nM
TGI (SK-MEL-2 melanoma): 18700 nM
GI50 (SN12C renal): 411 nM
TGI (SN12C renal): 6170 nM
GI50 (MCF7 breast): 30 nM
TGI (MCF7 breast): 11700 nM
GI50 (HCC-2998 colon): 264 nM
TGI (HCC-2998 colon): 1410 nM
GI50 (OVCAR-5 ovarian): 370 nM
TGI (OVCAR-5 ovarian): 7580 nM
GI50 (SK-OV-3 ovarian): 324 nM
TGI (SK-OV-3 ovarian): 10700 nM
GI50 (SK-MEL-28 melanoma): 825 nM
TGI (SK-MEL-28 melanoma): 20100 nM
GI50 (HL-60(TB) leukemia): 235 nM
TGI (HL-60(TB) leukemia): 671 nM
GI50 (OVCAR-8 ovarian): 257 nM
TGI (OVCAR-8 ovarian): 1250 nM
GI50 (K-562 leukemia): 42.6 nM
TGI (K-562 leukemia): > 40800 nM
GI50 (NCI-H23 lung): 205 nM
TGI (NCI-H23 lung): 2560 nM
GI50 (KM12 colon): 309 nM
TGI (KM12 colon): 16900 nM
GI50 (BT-549 breast): 137 nM
TGI (BT-549 breast): 1170 nM
GI50 (TK-10 renal): 1580 nM
TGI (TK-10 renal): 13500 nM
GI50 (SR leukemia): 90 nM
TGI (SR leukemia): 30800 nM
GI50 (DU-145 prostate): 541 nM
TGI (DU-145 prostate): > 33200 nM
GI50 (SK-MEL-5 melanoma): 391 nM
TGI (SK-MEL-5 melanoma): 2350 nM
GI50 (CAKI-1 renal): 183 nM
TGI (CAKI-1 renal): 11500 nM
GI50 (UO-31 renal): 375 nM
TGI (UO-31 renal): 11100 nM
GI50 (CCRF-CEM leukemia): 312 nM
TGI (CCRF-CEM leukemia): 24700 nM
GI50 (SW-620 colon): 111 nM
TGI (SW-620 colon): 13400 nM
GI50 (SNB-19 CNS): 339 nM
TGI (SNB-19 CNS): 13000 nM
GI50 (A498 renal): 3350 nM
TGI (A498 renal): 17200 nM
GI50 (MALME-3M melanoma): 99.2 nM
TGI (MALME-3M melanoma): 11200 nM
GI50 (HCT-15 colon): 75.5 nM
TGI (HCT-15 colon): 6400 nM
GI50 (NCI-H226 lung): 282 nM
TGI (NCI-H226 lung): 2810 nM
GI50 (MDA-MB-435): 24.1 nM
TGI (MDA-MB-435): 62 nM
GI50 (LOX IMVI melanoma): 160 nM
TGI (LOX IMVI melanoma): 2450 nM
GI50 (PC-3 prostate): 305 nM
TGI (PC-3 prostate): 14800 nM
GI50 (IGROV1 ovarian): 318 nM
TGI (IGROV1 ovarian): 12700 nM
GI50 (UACC-62 melanoma): 53.5 nM
TGI (UACC-62 melanoma): 12500 nM
GI50 (NCI/ADR-RES ovarian): 57.4 nM
TGI (NCI/ADR-RES ovarian): 1760 nM
GI50 (OVCAR-3 ovarian): 134 nM
TGI (OVCAR-3 ovarian): 4100 nM
GI50 (786-0 renal): 458 nM
TGI (786-0 renal): 6490 nM
GI50 (MOLT-4 leukemia): 414 nM
TGI (MOLT-4 leukemia): 33600 nM
GI50 (T-47D breast): 35.1 nM
TGI (T-47D breast): 26900 nM
GI50 (EKVX NSCLC): 573 nM
TGI (EKVX NSCLC): 18900 nM
GI50 (SNB-75 CNS): 158 nM
TGI (SNB-75 CNS): 1360 nM
GI50 (ACHN renal): 450 nM
TGI (ACHN renal): 10700 nM
GI50 (HOP-62 NSCLC): 265 nM
TGI (HOP-62 NSCLC): 3970 nM
GI50 (NCI-H460 lung): 52.1 nM
TGI (NCI-H460 lung): 1370 nM
GI50 (RXF 393 renal): 36.5 nM
TGI (RXF 393 renal): 189 nM
GI50 (MDA-MB-231 breast): 457 nM
TGI (MDA-MB-231 breast): 3170 nM
GI50 (OVCAR-4 ovarian): 1340 nM
TGI (OVCAR-4 ovarian): 7480 nM
GI50 (HOP-92 NSCLC): 4320 nM
TGI (HOP-92 NSCLC): 20500 nM
GI50 (SF-295 CNS): 79.9 nM
TGI (SF-295 CNS): 770 nM
GI50 (HCT-116 colon): 102 nM
TGI (HCT-116 colon): 1950 nM
GI50 (NCI-H522 lung): 22.8 nM
TGI (NCI-H522 lung): 94.6 nM
GI50 (M14 melanoma): 137 nM
TGI (M14 melanoma): 1900 nM
GI50 (RPMI-8226 leukemia): 324 nM
TGI (RPMI-8226 leukemia): 9770 nM
